Drawing on PubChem BioAssay (NCI), this text covers TGI and GI50 for 9 compounds.

Values joined by “and” are separate entries in the source; they are usually repeats but may differ in a detail not shown here. Equal entries are not always repeated.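 Exposure lasted 48 hours, with cells grown in 96-well plates and compounds tested at five concentrations. The concentration for 50% growth inhibition is given as GI50. TGI is the concentration that stops growth completely.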 Where a SMILES comes first, the peptide text is derived from it. [ ]: non-standard residue; d: D form. The star is where a group is joined. ξ: configuration not given here. X16 = COC1=CC(=O)N(C(=O)C(O*)C(C)C)C1Cc1ccccc1; ξNMe2Val = CC(C)C(C(=O)*)N(C)C; NMeV = CN[CH](C(=O)O)C(C)C

Common to all, as to assay: NCI anticancer screen, dose series, 48 h
Assay [1] relates to HCC-2998 colon.
For assay [2], the system named is HOP-18 NSCLC.
The subject of assay [3] is NCI-H23 lung.
The test system of assay [4] is RXF 393 renal.
Assay [5] deals with SF-539 CNS.
The subject of assay [6] is SK-MEL-2 melanoma.
Assay [7] deals with SN12K1 renal.
For assay [8], the system named is ACHN renal.
Assay [9] concerns BT-549 breast.
Assay [10] relates to T-47D breast.

As for `Nc1cc2c(cc1[N+](=O)[O-])[nH]c1c(-c3ccccc3)nccc12`, the TGI in [1] is 31.5 µM; in assay [2], 50.8 µM; in assay [3] it was 39.5 µM; in [4], 73.1 µM; in assay [5], greater than 75.4 µM; in [6], 38.2 µM. The compound also showed a TGI in assay [7] of 67.7 µM.

Consider `COC1=CC(=O)N(C(=O)C(OC(=O)C2CCCN2C(=O)C2CCCN2C(=O)C(C(C)C)N(C)C(=O)C(NC(=O)C(C(C)C)N(C)C)C(C)C)C(C)C)C1Cc1ccccc1` (stereo unspecified) (ξNMe2Val-V[NMeV]PP-X16; configuration not given here), for which the GI50 was less than 0.0004 µM in assay [1]; greater than 4 µM in assay [2]; less than 0.0004 µM in [3]; less than 0.0004 µM in assay [4]; less than 0.0004 µM in assay [5]; less than 0.0004 µM in assay [6]. For the same compound, the TGI is greater than 4 µM in assay [2]; 0.0145 µM in [3]; 0.00516 µM and 0.0481 µM in assay [5]; 0.000527 µM in [7].

For `CC1(C)CCc2c(cc3c(c2O)CCC(C)(C)O3)O1`, the TGI in assay [8] is greater than 100 µM; in assay [9], greater than 100 µM; in assay [1], greater than 100 µM; in [3], greater than 100 µM; in assay [5], greater than 100 µM; in assay [6], 98.3 µM. The same compound displayed a TGI in assay [10] greater than 100 µM.

For the compound `CCOc1ncn(-c2ccc(NC(=S)Nc3cccc(O)c3)cc2)n1`, the TGI in [9], in assay [1], in assay [3], in [5] and in assay [10] was greater than 100 µM throughout.

For the compound `ClCCN(CCCl)Cc1ccc(Nc2ccnc3cc(Cl)ccc23)cc1`, the GI50 in assay [8] is 0.548 µM; in assay [9] it was 2.12 µM; in assay [1], 1.41 µM; in assay [3], 1.33 µM; in assay [10], 1.09 µM. The TGI in assay [8] is greater than 100 µM; in [9], 6.04 µM; in assay [1] it was 2.76 µM; in assay [3] it was 4.52 µM; in assay [10], 3.69 µM.

As for `COc1ccc2c(O)c3[n+](cc2c1OC)CCc1cc2c(cc1-3)OCO2`, the TGI in assay [8] was greater than 100 µM; in [9], greater than 100 µM; in assay [1], greater than 100 µM; in assay [3], greater than 100 µM; in assay [4] it was 85.7 µM; in assay [5] it was greater than 100 µM. The TGI in assay [6] and in assay [10] was greater than 100 µM each time.

For `C=C/C(C)=C/[C@H](C)C(=O)C[C@H](O)CC1CC(=O)NC(=O)C1`, the TGI in [1] was greater than 100 µM; in assay [2], greater than 93.6 µM; in [3], greater than 100 µM; in [4] it was greater than 100 µM; in [5], greater than 100 µM; in assay [6], greater than 100 µM. Further, the TGI in assay [7] is greater than 100 µM.

As to `Cc1ccc(OP2(=O)Oc3ccc4ccccc4c3CN2c2ccc(Cl)cc2)cc1C` (stereo unspecified), the TGI in assay [1], in assay [2], in assay [3], in [4], in assay [5] and in [6] was greater than 100 µM throughout. This compound also came in with a TGI in [7] greater than 100 µM.

`COC[C@H]1C(=O)NCC(=O)N2NCCC[C@H]2C(=O)N(O)[C@H](C)C(=O)O[C@@H](C(C)C)[C@H](NC(=O)[C@](C)(O)[C@]2(O)CC[C@@H](CC(C)C)[C@H](C)O2)C(=O)N2NCCC[C@@H]2C(=O)N1O`: the GI50 in assay [8] is 0.0168 µM; in assay [3], less than 0.01 µM; in assay [5], 0.0146 µM; in assay [6], 0.0152 µM; in [10] it was 0.0149 µM. For the same compound, the TGI in [8] worked out at 0.0307 µM; in [3], 0.0364 µM; in assay [5], 0.0285 µM; in assay [6] it was 0.0304 µM; in assay [10], 0.0332 µM.
